Test results taken from patent US20250136669A1, “VHH ANTIBODY” (TEIKYO HEISEI UNIVERSITY, priority 2021, published 2025).

What was measured:
Pseudomonas aeruginosa = settings: fraction of MIC, Non Patent Literatures 4 and 5; cited from earlier work
[1] = system: multidrug-resistant Pseudomonas aeruginosa NCGM2.S1; assay: Silkworm Pseudomonas aeruginosa infection model; assay type: in vivo; settings: colistin alone administration group, probit analysis
Description: A: Overnight culture solution of NCGM2.S1 was diluted by 100 times and cultured for 16 hours and was then injected into hemolymph of silkworms on the 2nd day of the 5th instar, and 0.05 mL of colistin was then injected into the blood. The survival rates were measured over 96 hours. […] The survival rates were measured over 96 hours. […] The survival rates were measured over 96 hours.
Overnight culture solution of multidrug-resistant Pseudomonas aeruginosa NCGM2.S1 was diluted 100 times and was further cultured overnight. The bacterial culture solution was diluted with physiological saline (Otsuka Pharmaceutical Co., Ltd.), and 0.05 mL thereof was injected into hemolymph from the dorsal surface using a 1-mL injection syringe (Terumo Corporation) and 27-gauge syringe needle (Terumo Corporation), and the silkworm larvae were fed at 27° C. The median lethal dose was measured from the survival rate after 24 hours, and 0.05 mL of the bacteria in an amount 4 times the median lethal dose was injected to make a silkworm Pseudomonas aeruginosa infection model.

[2] = system: Staphylococcus aureus ATCC25923; assay: Colistin MIC with antibody, Staphylococcus aureus; assay type: cell-based; settings: same in absence and presence of 10 μg/mL 4P41 LZ trimer
Description: The minimum growth inhibitory concentration (MIC) of an antimicrobial agent was measured by a microbroth dilution method in accordance with the Clinical Laboratory Standards Institute (CLSI) guideline. The serially diluted antimicrobial agent was added to a 96-well round bottom microtiter plate (Watson Co., Ltd.) at 100 μL/well, and each bacterial strain was inoculated at 5×10^5 CFU/mL/well. As the antimicrobial agent, Aztreonam (Sigma-Aldrich), Amikacin (Sigma-Aldrich), Arbekacin (Meiji Seika Pharma Co., Ltd.), Ofloxacin (Sigma-Aldrich), colistin (Sigma-Aldrich), and Polymyxin B (Sigma-Aldrich) were used. Synergistic effect of an antibody and an antimicrobial agent was evaluated using a checkerboard dilution method. Each of the antimicrobial agents was serially two-fold diluted in the vertical direction in a 96-well round bottom titer plate to concentrations between 0.125 to 2 times the MIC. Subsequently, an antibody was serially two-fold diluted in the horizontal direction of the plate in a range of 0 to 10 μg/mL or 0 to 20 μg/mL. Each bacterial strain was inoculated at 5×10^5 CFU/mL/well.
A multidrug-resistant Pseudomonas aeruginosa NCGM2.S1 and drug-susceptible Pseudomonas aeruginosa PAO1 and OCR1 were cultured using Luria Bertani (LB) medium (BD) or an LB plate containing 15 g/L of agar at 37° C. […]

[3] = system: ovalbumin-loop 1 peptide (loop 1 of OprM); assay: ELISA binding of VHH monomer to loop 1 antigen; set-up: species or system Pseudomonas aeruginosa; settings: purified monomer protein
Description: In the anti-loop 1 VHH antibody, 0.1 M NaHCO3 (Blank), 0.1 M NaHCO3 containing […] of thyroglobulin, 0.1 M NaHCO3 containing 10 μg/mL of thyroglobulin-loop 1 peptide, or 0.1 M NaHCO3 containing 10 μg/mL of ovalbumin-loop 1 peptide was added to a 96-well immuno plate (Nunc) at 40 μL/well and was left to stand at 4° C. overnight.
In the anti-loop 2 VHH antibody, 0.1 M NaHCO3 (Blank), 0.1 M NaHCO3 containing […] of KLH-loop 2 peptide was added to a 96-well immuno plate (Nunc) at 40 μL/well and was left to stand at 4° C. overnight. SuperBlock-PBS (Thermo Fisher Scientific) was added to the plate at 350 μL/well and left to stand at room temperature for 1 hour. After washing with 400 μL/well of PBS-T (phosphate buffer saline containing 0.05% Tween 20), 40 µL/well of SuperBlock-TBS containing 0.2 μg/mL of the VHH antibody was added thereto, followed by reaction at room temperature for 1 hour. The wells were washed with 400 μL/well of PBS-T again three times, and 40 μL/well of anti-Myc mouse monoclonal antibody 9E10 (Santa Cruz Biotechnology Inc.) diluted 500 times with SuperBlock-TBS was added thereto, followed by reaction at room temperature for 1 hour. […] Subsequently, absorbance at 450 nm was measured, and the average and standard deviation were calculated of triplicate or quadruplicate measurement.

[4] = system: multidrug-resistant Pseudomonas aeruginosa strain NCGM2.S1; assay: Drug susceptibility test (MIC, microbroth dilution, CLSI) with antibody added; assay type: cell-based; settings: NCGM2.S1, antibody 10 μg/mL, FIG. 14B
Description: B: MIC of colistin in the presence of an antibody. The MIC of colistin in the presence of each antibody in NCGM2.S1 was measured by a microbroth dilution method in accordance with the CLSI guideline. […] As the negative control, a 4P6 trimer which is a human TRAIL-R1 VHH trimer was used.
The minimum growth inhibitory concentration (MIC) of an antimicrobial agent was measured by a microbroth dilution method in accordance with the Clinical Laboratory Standards Institute (CLSI) guideline. The serially diluted antimicrobial agent was added to a 96-well round bottom microtiter plate (Watson Co., Ltd.) at 100 μL/well, and each bacterial strain was inoculated at 5×10^5 CFU/mL/well. As the antimicrobial agent, Aztreonam (Sigma-Aldrich), Amikacin (Sigma-Aldrich), Arbekacin (Meiji Seika Pharma Co., Ltd.), Ofloxacin (Sigma-Aldrich), colistin (Sigma-Aldrich), and Polymyxin B (Sigma-Aldrich) were used. Synergistic effect of an antibody and an antimicrobial agent was evaluated using a checkerboard dilution method. Each of the antimicrobial agents was serially two-fold diluted in the vertical direction in a 96-well round bottom titer plate to concentrations between 0.125 to 2 times the MIC. Subsequently, an antibody was serially two-fold diluted in the horizontal direction of the plate in a range of 0 to 10 μg/mL or 0 to 20 μg/mL. Each bacterial strain was inoculated at 5×10^5 CFU/mL/well. […]

Question: Which “decrease of the MIC value of an antimicrobial agent in Pseudomonas aeruginosa” value (Pseudomonas aeruginosa) does the source give for `c1ccc2c(c1)Nc1ccccc1S2` [phenothiazine] here?
Answer: ⅛

Question: Which results are given for colistin?
Answer: therapeutically effective dose ED50 of colistin [1]: 124 μg/g body weight; MIC of colistin in Staphylococcus aureus [2]: > 128 µg/mL

Question: For `c1ccc2c(CN3CCNCC3)cccc2c1` [NMP, 1-(1-naphthylmethyl)-piperazine], which “decrease of the MIC value of an antimicrobial agent in Pseudomonas aeruginosa” value (Pseudomonas aeruginosa) is on record?
Answer: ⅛

B1: 4P94 monomer: anti-loop 1 VHH antibody from alpaca, monomer with cMyc-Tag and His-Tag (protein)
VHH: EVQLVESGGGLVQAGNSLKLSCVVSGRTLRNYAMGWFRQAPLKEREFVAAIGWTTGTASYGTPTYSDSVKGRFTISRDNAGNTLYLLMNNLKPEDTAVYYCAAGLIGYFGDRISSASVYDGWGQGTQVTVSS
modifications: left off: small tags and cut ends
notes: anti-loop 1 VHH antibody from alpaca, monomer with cMyc-Tag and His-Tag
Question: What does the source list for B1?
Answer: binding to ovalbumin-loop 1 peptide [3]: specifically bound; change in MIC of colistin, antibody added at 10 μg/mL [4]: ¼
